{"source": "paper PMC7281472", "about": "“CYC31, A Natural Bromophenol PTP1B Inhibitor, Activates Insulin Signaling and Improves Long Chain-Fatty Acid Oxidation in C2C12 Myotubes” (Marine Drugs, 2020)", "target": "T1, protein tyrosine phosphatase 1B (PTP1B) (Homo sapiens, UniProt P18031)", "T1 construct": "gene PTPN1; PTP1B1-321", "T1 sequence (P18031 1-321)": "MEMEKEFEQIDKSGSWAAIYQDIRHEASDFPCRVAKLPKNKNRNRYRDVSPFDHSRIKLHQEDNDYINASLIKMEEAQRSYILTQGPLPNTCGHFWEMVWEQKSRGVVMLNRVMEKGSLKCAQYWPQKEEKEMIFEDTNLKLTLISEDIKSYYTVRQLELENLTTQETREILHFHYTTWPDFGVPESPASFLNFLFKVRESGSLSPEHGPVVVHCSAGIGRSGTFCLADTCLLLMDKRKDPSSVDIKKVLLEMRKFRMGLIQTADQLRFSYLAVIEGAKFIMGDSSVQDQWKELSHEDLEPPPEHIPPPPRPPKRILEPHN", "experiment": "pNPP hydrolysis assay with recombinant human PTP1B, absorbance at […] nm", "format": "biochemical", "data": [{"smiles": "Oc1cc(Cc2cc(O)c(O)c(Br)c2Cc2cc(O)c(O)c(Br)c2Br)c(Br)c(Br)c1O", "note": "[CYC31, 3-bromo-4,5-Bis(2,3-dibromo-4,5-dihydroxybenzyl)-1,2-benzenediol]", "values": [{"measurement": "pNPP hydrolysis assay with recombinant human PTP1B, absorbance at 405 nm", "value": "As shown in Figure 1B, PTP1B was significantly inactivated by CYC31 in a concentration-dependent manner."}]}]}
